Experimental data taken from patent US5861476A, “Peptides and compounds that bind to the IL-1 receptor” (Affymax Technologies N.V., priority 1995, dated 1999).
pIC50: −log10 of the molar value. Where no end group is shown, it is not given here.

molecular target: T1, IL-1RtI (Homo sapiens, UniProt P14778); test: Inhibition of 125I-IL-1α binding to IL-1RtI (Example 3); conditions: not given
T1 construct: made in house; host or cells: recombinant host cells (one form soluble from baculovirus transformed host cells; another PIG-tailed and cleaved from the cell surface)
T1 sequence (P14778 18-336): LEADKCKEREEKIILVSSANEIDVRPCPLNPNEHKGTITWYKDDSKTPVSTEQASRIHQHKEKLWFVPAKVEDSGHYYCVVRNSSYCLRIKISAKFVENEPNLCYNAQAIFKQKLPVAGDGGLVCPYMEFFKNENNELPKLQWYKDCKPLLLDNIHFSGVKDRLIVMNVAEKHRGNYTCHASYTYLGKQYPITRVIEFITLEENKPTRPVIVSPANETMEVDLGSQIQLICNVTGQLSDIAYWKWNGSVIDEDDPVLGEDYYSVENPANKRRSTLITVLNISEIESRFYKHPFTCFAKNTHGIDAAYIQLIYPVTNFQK
Outline: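 Competition with 90 pM 125I-IL-1α was run in duplicate for 2 h at 4 °C in HEPES-buffered RPMI with 1% BSA, pH 7.2-7.3, against either antibody-captured truncated receptor or cells with full-length IL-1RtI. Gamma counting of NaOH-detached material gave approximate IC50; high-affinity peptides used 24-well format.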

FTWEESNAYYWQPY-NH2 [FTWEESNAYYWQPY-NH2] and HIDNTAWYENFLLTYTP [HIDNTAWYENFLLTYTP] cannot be ordered by pIC50: > 6.30 for the first, > 6.30 for the second.

QIDNTAWYERFLLQYNA [QIDNTAWYERFLLQYNA] and TYTYDNTAWYERFLMSY [TYTYDNTAWYERFLMSY] cannot be ordered by pIC50: > 6.30 for the first, > 6.30 for the second.

same assay, conditions: inhibition of 125I-IL-1α binding to IL-1RtI; soluble peptide unless marked *

FIEWFQPYALPL [FIEWFQ PYALPL] and FYEWWQPYALPL [FYEWWQ PYALPL] cannot be ordered by pIC50: ≥ 4.00 for the first, ≥ 4.00 for the second.

GVVWYQPYALPL [GVVWYQ PYALPL] and GWEQPYARGLAG [GWEQPYARGLAG] cannot be ordered by pIC50: < 4.00 for the first, ≥ 4.00 for the second.

GWTQPYSQQGEV [GWTQPYSQQGEV] and GWWQPYARGL [GWWQPYARGL] cannot be ordered by pIC50: ≥ 4.00 for the first, ≥ 4.00 for the second.

GWYQPYALGF [GWYQPYALGF] and GWYQPYVDGWR [GWYQPYVDGWR] cannot be ordered by pIC50: ≥ 4.00 for the first, ≥ 4.00 for the second.

HWGHVYWQPYSVQDDLG [HWGH VYWQPYSVQ DDLG] and IWYQPYAMPL [IWYQPYAMPL] cannot be ordered by pIC50: ≥ 4.00 for the first, ≥ 4.00 for the second.

LFEQPYAKALGL [LFEQPYAKALGL] and MWYQPYSSQPAE [MWYQPYSSQPAE] cannot be ordered by pIC50: ≥ 4.00 for the first, ≥ 4.00 for the second.

“NMVYWQPYSIQT [Peptide 3H7, NMVYWQPYSIQT]” and NSYFWQPYALPL [NSYFWQ PYALPL] cannot be ordered by pIC50: ≥ 4.00 for the first, ≥ 4.00 for the second.

PWIQPYARGFG [PWIQPYARGFG] and QRIWWQPYALPL [QRIWWQ PYALPL] cannot be ordered by pIC50: ≥ 4.00 for the first, ≥ 4.00 for the second.

RFDYWQPYSDQT [RFDYWQPYSDQT] and RFMYWQPYSVQR [RFMYWQPYSVQR] cannot be ordered by pIC50: ≥ 4.00 for the first, ≥ 4.00 for the second.

RGDYWQPYSVQS [3H9, 11, RGDYWQPYSVQS] and “RLVYWQPYSVQT [Peptide 3H2, RLVYWQPYSVQT]” cannot be ordered by pIC50: ≥ 4.00 for the first, ≥ 4.00 for the second.

RPLYWQPYSVQV [RPLYWQPYSVQV] and RSLYWQPYALPL [RSLYWQ PYALPL] cannot be ordered by pIC50: ≥ 4.00 for the first, ≥ 4.00 for the second.

RSQYYQPYALPL [RSQYYQ PYALPL] and RWEQPYVKDGWS [RWEQPYVKDGWS] cannot be ordered by pIC50: ≥ 4.00 for the first, ≥ 4.00 for the second.

RWWQPYATPL [RWWQPYATPL] and SDIWYQPYALPL [SDIWYQ PYALPL] cannot be ordered by pIC50: ≥ 4.00 for the first, ≥ 4.00 for the second.

SHLYWQPYSVQ [Peptide 2H2, SHLYWQPYSVQ] and SRIWCQPYALPL [SRIWCQ PYALPL] cannot be ordered by pIC50: ≥ 4.00 for the first, ≥ 4.00 for the second.

SRVWFQPYSLQS [3H1, 6, 12, SRVWFQPYSLQS] and “SVGEDHNFWTSEYWQPYALPL [SVGEDHNFWTSE YWQPYALPL]” cannot be ordered by pIC50: ≥ 4.00 for the first, ≥ 6.30 for the second.

SWHSVYWQPYSVQSVPE [SWHS VYWQPYSVQ SVPE] and “SWTDYGYWQPYALPISGL [SWTDYG YWQPYA LPISGL]” cannot be ordered by pIC50: ≥ 4.00 for the first, ≥ 6.30 for the second.

SYDWEQPYALPL [SYDWEQ PYALPL] and TIIWEQPYALPL [TIIWEQ PYALPL] cannot be ordered by pIC50: ≥ 4.00 for the first, ≥ 4.00 for the second.

TLIYWQPYSVQI [TLIYWQPYSVQI] and TLVYWQPYSLQT [Peptide H3, TLVYWQPYSLQT] cannot be ordered by pIC50: ≥ 4.00 for the first, ≥ 4.00 for the second.

“VHVYWQPYSVQT [Peptide 3H5, VHVYWQPYSVQT]” and VIEWWQPYALPL [VIEWWQ PYALPL] cannot be ordered by pIC50: ≥ 4.00 for the first, ≥ 4.00 for the second.

VWYWEQPYALPL [VWYWEQ PYALPL] and VYWQPYSVQ [VYWQPYSVQ] cannot be ordered by pIC50: ≥ 4.00 for the first, ≥ 4.00 for the second.

WETWYQPYALPL [WETWYQ PYALPL] and WGEWLQPYALPL [WGEWLQ PYALPL] cannot be ordered by pIC50: ≥ 4.00 for the first, ≥ 4.00 for the second.

WGNWWQPYSVHR [WGNWWQPYSVHR] and WLAWEQPYALPL [WLAWEQ PYALPL] cannot be ordered by pIC50: < 4.00 for the first, ≥ 4.00 for the second.

WRDSVYWQPYSVQPESA [WRDS VYWQPYSVQ PESA] and WWQPYALPL [WWQPYALPL] cannot be ordered by pIC50: ≥ 4.00 for the first, ≥ 4.00 for the second.

YFQPYALGL [YFQPYALGL] and YFQPYALPF [YFQPYALPF] cannot be ordered by pIC50: ≥ 4.00 for the first, < 4.00 for the second.

YWYQPYALGL [YWYQPYALGL] and YWYQPYALPL [YWYQPYALPL] cannot be ordered by pIC50: ≥ 4.00 for the first, ≥ 4.00 for the second.

YYQPYALPL [YYQPYALPL] and YYSWQPYALPL [YYSWQ PYALPL] cannot be ordered by pIC50: ≥ 4.00 for the first, < 4.00 for the second.

With YYTWQQPYALPL [YYTWQQ PYALPL] the pIC50 was < 4.00.
